According to PubChem BioAssay (NCI):
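Method: 48-hour compound exposure of cells in 96-well plates, five concentrations, linear interpolation of endpoints. GI50 = concentration required for 50% inhibition of growth. At the TGI there is no net growth.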

Legend:
Assay in all cases: growth of human tumour cells (NCI), 48 h
NCI-H522 lung = test system: NCI-H522 lung
SW-620 colon = test system: SW-620 colon
TK-10 renal = test system: TK-10 renal
HL-60(TB) leukemia = test system: HL-60(TB) leukemia
OVCAR-3 ovarian = test system: OVCAR-3 ovarian
A498 renal = test system: A498 renal
OVCAR-8 ovarian = test system: OVCAR-8 ovarian
EKVX NSCLC = test system: EKVX NSCLC
SNB-19 CNS = test system: SNB-19 CNS
NCI-H23 lung = test system: NCI-H23 lung
MDA-MB-231 breast = test system: MDA-MB-231 breast
OVCAR-5 ovarian = test system: OVCAR-5 ovarian
COLO 205 colon = test system: COLO 205 colon
SNB-75 CNS = test system: SNB-75 CNS
LOX IMVI melanoma = test system: LOX IMVI melanoma
MALME-3M melanoma = test system: MALME-3M melanoma
PC-3 prostate = test system: PC-3 prostate
SF-539 CNS = test system: SF-539 CNS
MDA-MB-468 breast = test system: MDA-MB-468 breast
UO-31 renal = test system: UO-31 renal
SF-295 CNS = test system: SF-295 CNS
786-0 renal = test system: 786-0 renal
HOP-92 NSCLC = test system: HOP-92 NSCLC
K-562 leukemia = test system: K-562 leukemia
UACC-62 melanoma = test system: UACC-62 melanoma
MDA-MB-435 = test system: MDA-MB-435
KM12 colon = test system: KM12 colon
SK-MEL-5 melanoma = test system: SK-MEL-5 melanoma
UACC-257 melanoma = test system: UACC-257 melanoma
A549 NSCLC = test system: A549 NSCLC
U251 CNS = test system: U251 CNS
RPMI-8226 leukemia = test system: RPMI-8226 leukemia
HCC-2998 colon = test system: HCC-2998 colon
MOLT-4 leukemia = test system: MOLT-4 leukemia
BT-549 breast = test system: BT-549 breast
NCI-H226 lung = test system: NCI-H226 lung
CAKI-1 renal = test system: CAKI-1 renal
HS 578T breast = test system: HS 578T breast
NCI-H460 lung = test system: NCI-H460 lung
SR leukemia = test system: SR leukemia
SK-MEL-28 melanoma = test system: SK-MEL-28 melanoma
HCT-116 colon = test system: HCT-116 colon
HOP-62 NSCLC = test system: HOP-62 NSCLC
M14 melanoma = test system: M14 melanoma
MCF7 breast = test system: MCF7 breast
T-47D breast = test system: T-47D breast
CCRF-CEM leukemia = test system: CCRF-CEM leukemia
SK-MEL-2 melanoma = test system: SK-MEL-2 melanoma
IGROV1 ovarian = test system: IGROV1 ovarian
SF-268 CNS = test system: SF-268 CNS
OVCAR-4 ovarian = test system: OVCAR-4 ovarian
SK-OV-3 ovarian = test system: SK-OV-3 ovarian
HT29 colon = test system: HT29 colon
HCT-15 colon = test system: HCT-15 colon
DU-145 prostate = test system: DU-145 prostate
RXF 393 renal = test system: RXF 393 renal
ACHN renal = test system: ACHN renal

N#C[Se]CC(=O)Nc1cccc(C(F)(F)F)c1
GI50 (NCI-H522 lung): 3.62 µM
TGI (NCI-H522 lung): 14.5 µM
GI50 (SW-620 colon): 2.41 µM
TGI (SW-620 colon): 5.55 µM
GI50 (TK-10 renal): 2.55 µM
TGI (TK-10 renal): 6.79 µM
GI50 (HL-60(TB) leukemia): 2.22 µM
TGI (HL-60(TB) leukemia): 6.31 µM
GI50 (OVCAR-3 ovarian): 2.33 µM
TGI (OVCAR-3 ovarian): 7.21 µM
GI50 (A498 renal): 3.95 µM
TGI (A498 renal): 17.7 µM
GI50 (OVCAR-8 ovarian): 2.01 µM
TGI (OVCAR-8 ovarian): 4.48 µM
GI50 (EKVX NSCLC): 1.46 µM
TGI (EKVX NSCLC): 2.94 µM
GI50 (SNB-19 CNS): 1.86 µM
TGI (SNB-19 CNS): 4.08 µM
GI50 (NCI-H23 lung): 2.25 µM
TGI (NCI-H23 lung): 5.59 µM
GI50 (MDA-MB-231 breast): 1.85 µM
TGI (MDA-MB-231 breast): 3.67 µM
GI50 (OVCAR-5 ovarian): 2.69 µM
TGI (OVCAR-5 ovarian): 7.17 µM
GI50 (COLO 205 colon): 10.1 µM
TGI (COLO 205 colon): 24.3 µM
GI50 (SNB-75 CNS): 1.72 µM
TGI (SNB-75 CNS): 5.26 µM
GI50 (LOX IMVI melanoma): 1.49 µM
TGI (LOX IMVI melanoma): 3.21 µM
GI50 (MALME-3M melanoma): 1.51 µM
TGI (MALME-3M melanoma): 3.24 µM
GI50 (PC-3 prostate): 5.77 µM
TGI (PC-3 prostate): 31 µM
GI50 (SF-539 CNS): 1.78 µM
TGI (SF-539 CNS): 3.25 µM
GI50 (MDA-MB-468 breast): 1.71 µM
TGI (MDA-MB-468 breast): 3.44 µM
GI50 (UO-31 renal): 1.3 µM
TGI (UO-31 renal): 2.65 µM
GI50 (SF-295 CNS): 2.04 µM
TGI (SF-295 CNS): 4.1 µM
GI50 (786-0 renal): 2.25 µM
TGI (786-0 renal): 4.92 µM
GI50 (HOP-92 NSCLC): 1.84 µM
TGI (HOP-92 NSCLC): 3.63 µM
GI50 (K-562 leukemia): 6.02 µM
TGI (K-562 leukemia): > 100 µM
GI50 (UACC-62 melanoma): 1.73 µM
TGI (UACC-62 melanoma): 4.33 µM
GI50 (MDA-MB-435): 1.95 µM
TGI (MDA-MB-435): 4.35 µM
GI50 (KM12 colon): 6.87 µM
TGI (KM12 colon): 33.8 µM
GI50 (SK-MEL-5 melanoma): 1.19 µM
TGI (SK-MEL-5 melanoma): 2.78 µM
GI50 (UACC-257 melanoma): 3.1 µM
TGI (UACC-257 melanoma): 19.9 µM
GI50 (A549 NSCLC): 1.87 µM
TGI (A549 NSCLC): 4.27 µM
GI50 (U251 CNS): 2.13 µM
TGI (U251 CNS): 5.52 µM
GI50 (RPMI-8226 leukemia): 18.3 µM
TGI (RPMI-8226 leukemia): 86.7 µM
GI50 (HCC-2998 colon): 13.7 µM
TGI (HCC-2998 colon): 29.5 µM
GI50 (MOLT-4 leukemia): 3.77 µM
TGI (MOLT-4 leukemia): 26.2 µM
GI50 (BT-549 breast): 1.57 µM
TGI (BT-549 breast): 3.05 µM
GI50 (NCI-H226 lung): 1.78 µM
TGI (NCI-H226 lung): 4.74 µM
GI50 (CAKI-1 renal): 2.23 µM
TGI (CAKI-1 renal): 4.77 µM
GI50 (HS 578T breast): 2.46 µM
TGI (HS 578T breast): 9.3 µM
GI50 (NCI-H460 lung): 2.47 µM
TGI (NCI-H460 lung): 9.83 µM
GI50 (SR leukemia): 5.35 µM
TGI (SR leukemia): > 100 µM
GI50 (SK-MEL-28 melanoma): 2.01 µM
TGI (SK-MEL-28 melanoma): 5.07 µM
GI50 (HCT-116 colon): 1.92 µM
TGI (HCT-116 colon): 4.16 µM
GI50 (HOP-62 NSCLC): 3.41 µM
TGI (HOP-62 NSCLC): 9.67 µM
GI50 (M14 melanoma): 1.9 µM
TGI (M14 melanoma): 5.02 µM
GI50 (MCF7 breast): 2.72 µM
TGI (MCF7 breast): 20 µM
GI50 (T-47D breast): 6.48 µM
TGI (T-47D breast): 86.6 µM
GI50 (CCRF-CEM leukemia): 4.34 µM
TGI (CCRF-CEM leukemia): 34.6 µM
GI50 (SK-MEL-2 melanoma): 9.03 µM
TGI (SK-MEL-2 melanoma): 47.8 µM
GI50 (IGROV1 ovarian): 1.55 µM
TGI (IGROV1 ovarian): 3.57 µM
GI50 (SF-268 CNS): 3.16 µM
TGI (SF-268 CNS): 12.2 µM
GI50 (OVCAR-4 ovarian): 5.93 µM
TGI (OVCAR-4 ovarian): 62 µM
GI50 (SK-OV-3 ovarian): 8.34 µM
TGI (SK-OV-3 ovarian): 31.9 µM
GI50 (HT29 colon): 3.66 µM
TGI (HT29 colon): 15.2 µM
GI50 (HCT-15 colon): 1.72 µM
TGI (HCT-15 colon): 3.31 µM
GI50 (DU-145 prostate): 1.9 µM
TGI (DU-145 prostate): 4.32 µM
GI50 (RXF 393 renal): 2.37 µM
TGI (RXF 393 renal): 6.01 µM
GI50 (ACHN renal): 3.29 µM
TGI (ACHN renal): 9.98 µM
